Experiment [1] addresses Bone morphogenetic protein receptor type-1B (Homo sapiens, UniProt O00238). The experiment can be described thus: Selectivity interaction (Ambit KINOMEscan and KiNATiv profiling in Jurkat cells) EUB0000090b BMPR1B. The settings on record: at 1 µM. It is filed as cell-based.
The target in experiment [2] is Wee1-like protein kinase 2 (Homo sapiens) (UniProt P0C1S8). The experiment can be described thus: Selectivity interaction (KinomeScan (DiscoverX)) EUB0001049a WEE2. The settings on record: at 1 µM.
Experiment [3] concerns the target T1, Ephrin type-A receptor 1 (Homo sapiens) (UniProt P21709).
T1 sequence (whole entry): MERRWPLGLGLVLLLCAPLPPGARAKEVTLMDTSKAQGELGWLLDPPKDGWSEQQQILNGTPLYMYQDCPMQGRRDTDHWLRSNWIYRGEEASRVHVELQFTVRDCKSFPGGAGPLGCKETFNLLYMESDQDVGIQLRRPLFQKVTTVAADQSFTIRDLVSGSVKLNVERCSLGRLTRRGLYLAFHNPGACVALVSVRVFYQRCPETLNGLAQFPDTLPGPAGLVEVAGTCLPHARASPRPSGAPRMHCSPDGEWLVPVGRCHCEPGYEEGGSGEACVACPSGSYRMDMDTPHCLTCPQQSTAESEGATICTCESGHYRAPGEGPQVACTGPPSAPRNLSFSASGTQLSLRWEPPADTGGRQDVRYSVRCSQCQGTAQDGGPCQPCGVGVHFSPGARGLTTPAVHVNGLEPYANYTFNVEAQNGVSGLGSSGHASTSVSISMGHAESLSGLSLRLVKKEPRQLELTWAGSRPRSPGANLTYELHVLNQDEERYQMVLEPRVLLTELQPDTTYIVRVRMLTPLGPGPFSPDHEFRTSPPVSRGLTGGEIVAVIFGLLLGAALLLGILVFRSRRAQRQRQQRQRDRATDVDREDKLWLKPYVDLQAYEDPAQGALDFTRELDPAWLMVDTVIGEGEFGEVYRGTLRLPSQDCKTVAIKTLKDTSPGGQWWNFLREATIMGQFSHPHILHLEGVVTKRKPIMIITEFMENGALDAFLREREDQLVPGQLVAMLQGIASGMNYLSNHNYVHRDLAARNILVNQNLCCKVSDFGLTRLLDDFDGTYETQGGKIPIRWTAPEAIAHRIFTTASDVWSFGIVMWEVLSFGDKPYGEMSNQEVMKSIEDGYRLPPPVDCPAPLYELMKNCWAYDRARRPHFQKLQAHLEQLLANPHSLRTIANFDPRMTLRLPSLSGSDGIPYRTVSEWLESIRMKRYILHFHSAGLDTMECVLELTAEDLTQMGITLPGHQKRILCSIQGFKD
Kind of experiment: Selectivity interaction (KinomeScan (DiscoverX)) EUB0000655a EPHA1. The following applies: at 10 µM.

The target in experiment [4] is Dual specificity mitogen-activated protein kinase kinase 2 (Homo sapiens) (UniProt P36507). The experiment can be described thus: Selectivity interaction (KinomeScan (DiscoverX)) EUB0000655a MAP2K2. The settings on record: at 10 µM.
Experiment [5] concerns the target MAP kinase-interacting serine/threonine-protein kinase 1 (Homo sapiens) (UniProt Q9BUB5). The experiment can be described thus: Selectivity interaction (KinomeScan (DiscoverX)) EUB0000655a MKNK1. The settings on record: at 10 µM.
The target in experiment [6] is T2, Hormonally up-regulated neu tumor-associated kinase (Homo sapiens) (UniProt P57058).
T2 sequence (whole entry): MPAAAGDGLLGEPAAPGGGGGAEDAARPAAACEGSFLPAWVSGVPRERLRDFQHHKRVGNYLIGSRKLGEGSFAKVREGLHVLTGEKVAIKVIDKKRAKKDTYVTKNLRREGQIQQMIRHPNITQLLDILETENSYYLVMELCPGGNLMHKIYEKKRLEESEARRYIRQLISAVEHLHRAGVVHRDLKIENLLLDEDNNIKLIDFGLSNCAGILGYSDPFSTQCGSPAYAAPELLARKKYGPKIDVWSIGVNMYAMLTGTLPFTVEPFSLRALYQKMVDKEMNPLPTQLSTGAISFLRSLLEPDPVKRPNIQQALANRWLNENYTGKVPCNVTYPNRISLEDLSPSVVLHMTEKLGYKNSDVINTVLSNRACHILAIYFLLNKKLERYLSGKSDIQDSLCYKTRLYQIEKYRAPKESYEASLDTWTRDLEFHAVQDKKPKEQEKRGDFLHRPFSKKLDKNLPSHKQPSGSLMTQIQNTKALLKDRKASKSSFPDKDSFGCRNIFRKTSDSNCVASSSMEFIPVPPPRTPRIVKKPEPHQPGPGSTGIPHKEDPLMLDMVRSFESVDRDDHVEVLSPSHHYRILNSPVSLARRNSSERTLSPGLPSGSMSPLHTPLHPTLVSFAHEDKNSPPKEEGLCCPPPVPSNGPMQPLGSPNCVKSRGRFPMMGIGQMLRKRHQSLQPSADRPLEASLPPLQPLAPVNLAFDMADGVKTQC
The experiment can be described thus: Selectivity interaction (LanthaScreen Eu Kinase Binding Assay) EUB0001632a HUNK. The settings on record: at 10 µM. For orientation: In TR-FRET formats the signal depends on donor and acceptor labels being close together.

Experiment [7] concerns the target Macrophage colony-stimulating factor 1 receptor (Homo sapiens) (UniProt P07333). The experiment can be described thus: Selectivity interaction (KinomeScan (DiscoverX)) EUB0000229b CSF1R. The following applies: at 10 µM.

Molecules are shown by their SMILES.

MAP kinase-interacting serine/threonine-protein kinase 1 (Homo sapiens), sequence (Q9BUB5 whole entry, looked up): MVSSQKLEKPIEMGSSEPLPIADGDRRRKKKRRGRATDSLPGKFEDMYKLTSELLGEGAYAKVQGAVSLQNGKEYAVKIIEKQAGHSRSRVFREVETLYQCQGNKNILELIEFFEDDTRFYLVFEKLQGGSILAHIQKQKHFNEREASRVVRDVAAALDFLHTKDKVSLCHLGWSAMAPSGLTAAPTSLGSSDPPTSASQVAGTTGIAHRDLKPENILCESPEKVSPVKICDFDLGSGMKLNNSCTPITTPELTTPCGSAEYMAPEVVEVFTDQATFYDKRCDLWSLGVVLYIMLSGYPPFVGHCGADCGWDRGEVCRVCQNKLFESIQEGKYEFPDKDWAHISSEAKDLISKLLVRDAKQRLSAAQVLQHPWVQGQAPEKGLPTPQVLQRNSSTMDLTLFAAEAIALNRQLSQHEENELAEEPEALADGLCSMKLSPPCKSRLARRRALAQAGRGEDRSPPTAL
Wee1-like protein kinase 2 (Homo sapiens), sequence (P0C1S8 whole entry, looked up): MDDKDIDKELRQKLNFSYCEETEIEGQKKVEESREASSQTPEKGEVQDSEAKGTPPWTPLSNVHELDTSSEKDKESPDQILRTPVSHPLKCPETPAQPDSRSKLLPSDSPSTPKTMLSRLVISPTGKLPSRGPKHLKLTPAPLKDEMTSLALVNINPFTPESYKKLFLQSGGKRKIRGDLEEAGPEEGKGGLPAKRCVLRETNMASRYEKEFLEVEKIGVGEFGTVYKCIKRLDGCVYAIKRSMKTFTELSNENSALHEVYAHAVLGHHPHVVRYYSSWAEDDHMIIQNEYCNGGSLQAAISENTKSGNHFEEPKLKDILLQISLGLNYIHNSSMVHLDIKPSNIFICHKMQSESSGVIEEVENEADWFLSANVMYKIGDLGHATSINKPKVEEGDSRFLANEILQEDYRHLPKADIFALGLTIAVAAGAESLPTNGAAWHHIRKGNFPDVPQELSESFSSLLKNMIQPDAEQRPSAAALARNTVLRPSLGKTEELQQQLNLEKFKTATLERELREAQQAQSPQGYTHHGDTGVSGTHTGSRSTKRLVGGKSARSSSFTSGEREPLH
Macrophage colony-stimulating factor 1 receptor (Homo sapiens), sequence (P07333 whole entry): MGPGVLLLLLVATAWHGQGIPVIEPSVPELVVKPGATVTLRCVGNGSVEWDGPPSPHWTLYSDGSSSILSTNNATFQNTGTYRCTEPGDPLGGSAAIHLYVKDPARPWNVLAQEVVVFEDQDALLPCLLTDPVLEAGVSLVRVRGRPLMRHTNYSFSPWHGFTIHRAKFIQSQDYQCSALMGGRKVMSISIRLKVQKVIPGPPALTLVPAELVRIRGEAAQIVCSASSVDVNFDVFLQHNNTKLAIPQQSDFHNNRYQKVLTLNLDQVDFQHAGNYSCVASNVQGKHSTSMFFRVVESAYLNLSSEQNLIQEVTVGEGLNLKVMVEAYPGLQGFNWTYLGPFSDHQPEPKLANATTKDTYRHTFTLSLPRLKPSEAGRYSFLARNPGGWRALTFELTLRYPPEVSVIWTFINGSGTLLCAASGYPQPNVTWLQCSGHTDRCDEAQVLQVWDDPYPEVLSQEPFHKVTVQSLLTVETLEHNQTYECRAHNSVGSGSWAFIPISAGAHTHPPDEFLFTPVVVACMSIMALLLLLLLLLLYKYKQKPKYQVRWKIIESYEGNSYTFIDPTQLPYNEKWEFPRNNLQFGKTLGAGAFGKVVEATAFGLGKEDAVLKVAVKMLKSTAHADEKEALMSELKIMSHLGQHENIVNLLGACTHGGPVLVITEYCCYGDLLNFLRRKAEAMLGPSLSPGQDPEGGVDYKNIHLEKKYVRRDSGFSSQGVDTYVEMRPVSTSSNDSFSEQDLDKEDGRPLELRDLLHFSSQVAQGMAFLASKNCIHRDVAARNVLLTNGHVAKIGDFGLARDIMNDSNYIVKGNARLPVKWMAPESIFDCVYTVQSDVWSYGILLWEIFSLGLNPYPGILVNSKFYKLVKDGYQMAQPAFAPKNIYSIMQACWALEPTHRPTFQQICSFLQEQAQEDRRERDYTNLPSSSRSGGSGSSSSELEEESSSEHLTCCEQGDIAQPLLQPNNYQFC
Dual specificity mitogen-activated protein kinase kinase 2 (Homo sapiens), sequence (P36507 whole entry): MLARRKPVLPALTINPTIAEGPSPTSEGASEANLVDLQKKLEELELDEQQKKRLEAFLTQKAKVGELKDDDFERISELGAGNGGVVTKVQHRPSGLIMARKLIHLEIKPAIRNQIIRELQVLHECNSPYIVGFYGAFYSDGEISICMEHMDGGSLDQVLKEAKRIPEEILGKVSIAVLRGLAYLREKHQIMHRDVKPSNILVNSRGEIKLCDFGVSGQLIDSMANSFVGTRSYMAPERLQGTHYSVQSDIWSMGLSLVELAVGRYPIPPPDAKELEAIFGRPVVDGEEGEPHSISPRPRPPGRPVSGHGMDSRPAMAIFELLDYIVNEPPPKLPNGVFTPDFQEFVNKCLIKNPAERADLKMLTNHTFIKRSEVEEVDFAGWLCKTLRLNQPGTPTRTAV
Bone morphogenetic protein receptor type-1B, sequence (O00238 whole entry): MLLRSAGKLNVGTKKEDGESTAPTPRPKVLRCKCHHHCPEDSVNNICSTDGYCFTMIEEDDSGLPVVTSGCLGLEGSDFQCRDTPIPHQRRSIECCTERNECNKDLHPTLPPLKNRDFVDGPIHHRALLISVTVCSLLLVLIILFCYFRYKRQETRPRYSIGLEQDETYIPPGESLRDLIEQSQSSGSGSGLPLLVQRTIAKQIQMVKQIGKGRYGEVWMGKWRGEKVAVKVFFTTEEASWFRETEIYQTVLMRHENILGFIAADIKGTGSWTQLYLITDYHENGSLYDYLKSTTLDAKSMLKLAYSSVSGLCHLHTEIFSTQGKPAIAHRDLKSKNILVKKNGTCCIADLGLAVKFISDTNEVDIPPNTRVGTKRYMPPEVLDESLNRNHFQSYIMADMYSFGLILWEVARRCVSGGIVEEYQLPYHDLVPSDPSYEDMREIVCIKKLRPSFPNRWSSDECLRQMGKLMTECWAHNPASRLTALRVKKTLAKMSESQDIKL

In the case of `CN(C)C/C=C/C(=O)Nc1ccc(C(=O)N2CCCC(Nc3ncc(Cl)c(-c4c[nH]c5ccccc45)n3)C2)cc1` (configuration not stated), the % of control in experiment [1] is 91%. Turning to `COc1cc(Nc2nc(C)cc(-c3cnn4nc(OC)ccc34)n2)cc(C(F)(F)F)c1`, the % of control in experiment [2] came to 100%.

As for `CN(C)CCOc1ccc(-c2nc(-c3ccncc3)c(-c3ccc4c(c3)CC/C4=N\O)[nH]2)cc1`, the % of control in experiment [3] is 91%; in experiment [4] it was 91%; in experiment [5], 81%. As for `Cn1cc(-n2cnc3c(NCc4nc5cc(Cl)c(Cl)cc5[nH]4)nc(N4CCOCC4)nc32)cn1`, the % of inhibition in experiment [6] was -12%. In the case of `COc1cc(N(C)c2ccnc3ccc(C(F)(F)F)cc23)cc(OC)c1OC`, the % binding in experiment [7] is 91%.

Source of the values: ChEMBL document CHEMBL5465560, “Selectivity Literature for EUbOPEN Chemogenomic Library” (2024).
